Values quoted from earlier work in patent publication US7585978B2, “Processes of manufacturing substituted-1,4-dihydropyridines, improved aqueous solutions thereof, and processes of manufacturing the solutions” (Navinta LLC, priority 2006, dated 2009).
“Also recorded” adds a separate entry of the source. Counter-ions that a name gives are not always drawn.

How the values were obtained:
[1] = hydrochloride

N=C(N)NCCC[C@H](N)C(=O)O [L-arginine]
pKa (first of three pKa values): 2.18 | pKa (second of three pKa values): 9.09

COC(=O)C1=C(C)NC(C)=C(C(=O)OCCN(C)Cc2ccccc2)C1c1cccc([N+](=O)[O-])c1 (stereo not drawn) [nicardipine hydrochloride]
solubility in water [1]: poorly soluble in water; also recorded: very poorly soluble in water
